Legend:
Experiment in all cases: Aerobic agar-dilution AST of facultative anaerobes (MIC, checkerboard FIC)
Format in all cases: cell-based
[1] = tested on: Staphylococcus aureus; design: MIC (Table 10C, head prints neither MIC nor unit): unit not given beside the values; conditions: for MIC (Table 10C, head prints neither MIC nor unit): strain (MR) 920516, aerobic; for MIC: Staphylococcus aureus
[2] = tested on: Enterococcus faecalis; conditions: Enterococcus faecalis
[3] = tested on: Pseudomonas aeruginosa; conditions: Pseudomonas aeruginosa, Pseudomonas aeruginosa 945748; read-out: MIC
[4] = tested on: Acinetobacter baumannii; conditions: Acinetobacter baumannii 919899, read-out: MIC

## Cc1cc(NS(=O)(=O)c2ccc(N)cc2)no1 [S, sulfamethoxazole]
[1]
  MIC (Table 10C, head prints neither MIC nor unit): >608

## CCCCCCCCCCNCCN[C@@]1(C)C[C@H](O[C@H]2[C@H](Oc3c4cc5cc3Oc3ccc(cc3Cl)[C@@H](O)[C@@H](NC(=O)[C@@H](CC(C)C)NC)C(=O)N[C@@H](CC(N)=O)C(=O)N[C@H]5C(=O)N[C@H]3C(=O)N[C@H](C(=O)N[C@H](C(=O)O)c5cc(O)c(CNCP(=O)(O)O)c(O)c5-c5cc3ccc5O)[C@H](O)c3ccc(c(Cl)c3)O4)O[C@H](CO)[C@@H](O)[C@@H]2O)O[C@@H](C)[C@H]1O [telavancin]
[1]
  MIC: 0.25 µg/mL
[1]; ATCC33591
  MIC: 0.125 µg/mL

## CN[C@H](CC(C)C)C(=O)N[C@H]1C(=O)N[C@@H](CC(N)=O)C(=O)N[C@H]2C(=O)N[C@H]3C(=O)N[C@H](C(=O)N[C@H](C(=O)O)c4cc(O)cc(O)c4-c4cc3ccc4O)[C@H](O)c3ccc(c(Cl)c3)Oc3cc2cc(c3O[C@@H]2O[C@H](CO)[C@@H](O)[C@H](O)[C@H]2O[C@H]2C[C@](C)(N)[C@H](O)[C@H](C)O2)Oc2ccc(cc2Cl)[C@H]1O [vancomycin]
[2]
  MIC: 1 µg/mL
[2]; ATCC51559
  MIC: > 32 µg/mL
[1]
  MIC: 1 µg/mL
[1]; ATCC33591
  MIC: 2 µg/mL

## C[C@@H](O)[C@H]1C(=O)N2C(C(=O)O)=C(S[C@@H]3CN[C@H](C(=O)N(C)C)C3)[C@H](C)[C@H]12 [meropenem]
[3]
  MIC: 8 µg/mL
[4]
  MIC: > 64 µg/mL

## CC(C)c1ccc(Cn2ccc3c4c(N)nc(NC5CC5)nc4ccc32)cc1 [Q]
[1]
  MIC (Table 10C, head prints neither MIC nor unit): 32

— US20230398101A1, “Co-agents as Therapy Against Anaerobic Pathogens” (priority 2022, published 2023)
